Test results from ChEMBL document CHEMBL4304769, “Discovery of Potent and Orally Bioavailable Inverse Agonists of the Retinoic Acid Receptor-Related Orphan Receptor C2” (ACS Med Chem Lett, 2019).

How the values were obtained:
physchem = settings: 1-octanol/PBS buffer, pH 7.4
in vitro = settings: human, Caco-2
in vivo [1] = settings: Wistar Han, rat, iv, 1 mg/kg
in vivo [2] = settings: Wistar Han, rat, po, 2 mg/kg

Row | SMILES | logD (physchem) | other results
1 | CCS(=O)(=O)c1ccc(C(NC(=O)Cc2ccnnc2)C(=O)Nc2ccc(C(O)(C(F)(F)F)C(F)(F)F)cc2)cc1 (configuration not stated) | 2.9 | 
2 | CCS(=O)(=O)c1ccc(C(NC(=O)CC(C)(C)O)C(=O)Nc2ccc(C(O)(C(F)(F)F)C(F)(F)F)cc2)cc1 (configuration not stated) | 3.3 | 
3 | CCS(=O)(=O)c1ccc(C(NC(=O)c2ccccc2)C(=O)Nc2ccc(C(O)(C(F)(F)F)C(F)(F)F)cc2)cc1 (configuration not stated) | > 4 | 
4 | CCS(=O)(=O)c1ccc(CC(=O)Nc2ccc(C(C)C)cc2)cc1 | 3.5 | 
5 | CCS(=O)(=O)c1ccc(CC(=O)Nc2ccc(-c3cccc(Cl)c3)cc2)cc1 | > 4 | 
6 | CCS(=O)(=O)c1ccc(C(NC(=O)NC)C(=O)Nc2ccc(C(O)(C(F)(F)F)C(F)(F)F)cc2)cc1 (configuration not stated) | 3.2 | 
7 | CCS(=O)(=O)c1ccc(C(NS(C)(=O)=O)C(=O)Nc2ccc(C(O)(C(F)(F)F)C(F)(F)F)cc2)cc1 (configuration not stated) | 2.7 | 
8 | CCS(=O)(=O)c1ccc(C(NC(=O)Cc2cccnn2)C(=O)Nc2ccc(C(O)(C(F)(F)F)C(F)(F)F)cc2)cc1 (configuration not stated) | 2.5 | 
9 | CCS(=O)(=O)c1ccc(C(NC(C)=O)C(=O)Nc2cc(-c3cc(C#N)cc(F)c3OC)cs2)cc1 (racemic) |  | Papp (in vitro): 0.3 ×10⁻⁶ cm/s; Vd at 24 h (in vivo [1]): 0.34 L/kg; bioavailability at 24 h (in vivo [2]): 19%
10 | CCS(=O)(=O)c1ccc(C(NC(=O)CC(C)C)C(=O)Nc2ccc(C(O)(C(F)(F)F)C(F)(F)F)cc2)cc1 (configuration not stated) | > 4 | 
11 | CCS(=O)(=O)c1ccc(CC(=O)Nc2ccc(C(OC)(C(F)(F)F)C(F)(F)F)cc2)cc1 | 4 | 
12 | CCS(=O)(=O)c1ccc(C(NC(=O)Cc2ccccn2)C(=O)Nc2ccc(C(O)(C(F)(F)F)C(F)(F)F)cc2)cc1 (configuration not stated) | 3.3 | 

Further lines, with some results ahead:

Row | logD (physchem) | SMILES | other results
13 | 2.8 | CCS(=O)(=O)c1ccc(C(N)C(=O)Nc2ccc(C(O)(C(F)(F)F)C(F)(F)F)cc2)cc1 (configuration not stated) | 
14 | 2.1 | CCS(=O)(=O)c1ccc(CC(=O)Nc2ccc([C@H](O)C(F)(F)F)cc2)cc1 | 
15 | 2.5 | CCS(=O)(=O)c1ccc(CC(=O)Nc2ccc(C(C)(C)C#N)cc2)cc1 | 
16 | 3.6 | CCS(=O)(=O)c1ccc(CC(=O)Nc2ccc(C(O)(C(F)(F)F)C(F)(F)F)cc2)cc1 | 
17 | 3.6 | CCS(=O)(=O)c1ccc(C(NC(=O)OC)C(=O)Nc2ccc(C(O)(C(F)(F)F)C(F)(F)F)cc2)cc1 (configuration not stated) | 
18 | 2.8 | CCS(=O)(=O)c1ccc(C(NC(=O)Cc2ccncn2)C(=O)Nc2ccc(C(O)(C(F)(F)F)C(F)(F)F)cc2)cc1 (configuration not stated) | 
19 | > 4 | CCS(=O)(=O)c1ccc(CC(=O)Nc2cccc(-c3cccc(Cl)c3)c2)cc1 | 
20 | > 4 | CCS(=O)(=O)c1ccc(C(NC(=O)CCc2ccccc2)C(=O)Nc2ccc(C(O)(C(F)(F)F)C(F)(F)F)cc2)cc1 (configuration not stated) | 
21 | 4 | CCS(=O)(=O)c1ccc(C(NC(=O)Cc2ccccc2)C(=O)Nc2ccc(C(O)(C(F)(F)F)C(F)(F)F)cc2)cc1 (configuration not stated) | Vd at 24 h (in vivo [1]): 10.2 L/kg; bioavailability at 24 h (in vivo [2]): 5%
22 | > 4.1 | CCS(=O)(=O)c1ccc(CC(=O)Nc2cc(-c3cccc(Cl)c3)cs2)cc1 | 
23 | 3.9 | CCS(=O)(=O)c1ccc(CC(=O)Nc2ccc(C(C(F)(F)F)C(F)(F)F)cc2)cc1 | 
